Two compounds from ChEMBL document CHEMBL3046644, “Biological activity of tropolone” (Biol Pharm Bull, 2003) can be followed below.

Structures are written as SMILES.

Test [1] concerns Tyrophagus putrescentiae. Nature of the test: Insecticidal activity against Tyrophagus putrescentiae assessed as mortality at 0.30 g/m'2 after 24 hr by clip method. Type of test: functional.
Test [2] concerns Tyrophagus putrescentiae. As to the kind of experiment: Insecticidal activity against Tyrophagus putrescentiae assessed as mortality at 0.50 g/m'2 after 24 hr by clip method. It counts as functional.
The subject of test [3] is Tyrophagus putrescentiae. Nature of the test: Insecticidal activity against Tyrophagus putrescentiae assessed as mortality at 0.10 g/m'2 after 24 hr by clip method. It counts as functional.
Test [4] relates to Dermatophagoides farinae. As to the kind of experiment: Insecticidal activity against Dermatophagoides farinae assessed as mortality at 0.40 g/m'2 after 24 hr by clip method. Type of test: functional.
Test [5] relates to Dermatophagoides farinae. As to the kind of experiment: Insecticidal activity against Dermatophagoides farinae assessed as mortality at 0.025 g/m'2 after 24 hr by clip method. It counts as functional.
The test system of test [6] is Dermatophagoides farinae. Nature of the test: Insecticidal activity against Dermatophagoides farinae assessed as mortality at 0.30 g/m'2 after 24 hr by clip method. It counts as functional.
In test [7] the test system is Dermatophagoides farinae. As to the kind of experiment: Insecticidal activity against Dermatophagoides farinae assessed as mortality at 0.50 g/m'2 after 24 hr by clip method. It counts as functional.
In the next test the target is T1, Thermolysin (Bacillus thermoproteolyticus, UniProt P00800).
T1 sequence (P00800 whole entry): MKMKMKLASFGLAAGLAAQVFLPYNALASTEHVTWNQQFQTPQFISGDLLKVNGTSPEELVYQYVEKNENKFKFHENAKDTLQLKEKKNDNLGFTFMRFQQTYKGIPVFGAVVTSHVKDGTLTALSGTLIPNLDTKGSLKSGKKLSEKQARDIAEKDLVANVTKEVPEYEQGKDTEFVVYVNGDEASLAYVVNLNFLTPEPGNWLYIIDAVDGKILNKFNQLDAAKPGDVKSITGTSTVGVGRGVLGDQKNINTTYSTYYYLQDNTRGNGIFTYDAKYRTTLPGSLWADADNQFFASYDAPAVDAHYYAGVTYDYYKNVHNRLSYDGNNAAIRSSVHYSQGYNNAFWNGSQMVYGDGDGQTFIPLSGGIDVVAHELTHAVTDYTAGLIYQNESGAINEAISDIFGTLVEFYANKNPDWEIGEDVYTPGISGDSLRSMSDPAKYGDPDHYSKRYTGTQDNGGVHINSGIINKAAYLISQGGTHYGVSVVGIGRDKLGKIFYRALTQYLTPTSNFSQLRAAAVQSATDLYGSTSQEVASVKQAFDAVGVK
Nature of the test: Inhibition of Bacillus thermoproteolyticus thermolysin after 15 min.

The subject of test [8] is Coptotermes formosanus. As to the kind of experiment: Insecticidal activity against Coptotermes formosanus assessed as mortality at 0.025 g/m'2 after 24 hr. It counts as functional.
For test [9], the system named is Tyrophagus putrescentiae. As to the kind of experiment: Insecticidal activity against Tyrophagus putrescentiae assessed as mortality after 24 hr by clip method. Type of test: functional.
Test [10] deals with Coptotermes formosanus. Nature of the test: Insecticidal activity against Coptotermes formosanus assessed as mortality at 0.025 g/m'2 after 48 hr. It counts as functional.
The subject of test [11] is Dermatophagoides farinae. As to the kind of experiment: Insecticidal activity against Dermatophagoides farinae assessed as mortality at 1 g/m'2 after 24 hr by clip method. It counts as functional.
For test [12], the system named is Tyrophagus putrescentiae. As to the kind of experiment: Insecticidal activity against Tyrophagus putrescentiae assessed as mortality at 0.60 g/m'2 after 24 hr by clip method. Type of test: functional.
Test [13] deals with Tyrophagus putrescentiae. Nature of the test: Insecticidal activity against Tyrophagus putrescentiae assessed as mortality at 1 g/m'2 after 24 hr by clip method. It counts as functional.
In test [14] the test system is Tyrophagus putrescentiae. Nature of the test: Insecticidal activity against Tyrophagus putrescentiae assessed as mortality at 0.80 g/m'2 after 24 hr by clip method. Type of test: functional.
Test [15] deals with Coptotermes formosanus. As to the kind of experiment: Insecticidal activity against Coptotermes formosanus assessed as mortality at 1 g/m'2 after 24 hr. It counts as functional.
In test [16] the test system is Coptotermes formosanus. Nature of the test: Insecticidal activity against Coptotermes formosanus assessed as mortality at 1 g/m'2 after 48 hr. Type of test: functional.
In test [17] the test system is Dermatophagoides farinae. As to the kind of experiment: Insecticidal activity against Dermatophagoides farinae assessed as mortality at 0.60 g/m'2 after 24 hr by clip method. Type of test: functional.
In test [18] the test system is Dermatophagoides farinae. As to the kind of experiment: Insecticidal activity against Dermatophagoides farinae assessed as mortality at 0.80 g/m'2 after 24 hr by clip method. Type of test: functional.
The subject of test [19] is Dermatophagoides farinae. As to the kind of experiment: Insecticidal activity against Dermatophagoides farinae assessed as mortality at 0.03 g/m'2 after 24 hr by clip method. It counts as functional.
Test [20] concerns Coptotermes formosanus. As to the kind of experiment: Insecticidal activity against Coptotermes formosanus assessed as mortality at 0.020 g/m'2 after 24 hr. Type of test: functional.
The test system of test [21] is Coptotermes formosanus. As to the kind of experiment: Insecticidal activity against Coptotermes formosanus assessed as mortality at 0.010 g/m'2 after 48 hr. Type of test: functional.
Test [22] concerns Coptotermes formosanus. Nature of the test: Insecticidal activity against Coptotermes formosanus assessed as mortality at 0.020 g/m'2 after 48 hr. Type of test: functional.
Test [23] has as its system Coptotermes formosanus. As to the kind of experiment: Insecticidal activity against Coptotermes formosanus assessed as mortality at 0.010 g/m'2 after 24 hr. Type of test: functional.

For `CC(C)c1cccc(=O)c(O)c1` [HINOKITIOL], the mortality in the test with Tyrophagus putrescentiae [1] amounted to 55.5%; in the test with Tyrophagus putrescentiae [2], 91.3%; in the test with Tyrophagus putrescentiae [3], 11.9%; with Dermatophagoides farinae [4], 100%; in the test with Dermatophagoides farinae [5], 7.8%; in the test with Dermatophagoides farinae [6], 100%. In addition, the figures for the mortality in the test on Dermatophagoides farinae [7], in the test on Coptotermes formosanus [8] and in the test with Coptotermes formosanus [10] were 100%, 10% and 20%, respectively. Further, at Thermolysin, half-maximal inhibition (IC50) was put at 61 µM. Moreover, the LC50 with Tyrophagus putrescentiae [9] was 0.24 g/m2.
For the compound `O=c1cccccc1O` [TROPOLONE], the mortality with Dermatophagoides farinae [11] amounted to 100%; in the test on Tyrophagus putrescentiae [12] it was 79.8%; with Tyrophagus putrescentiae [13], 100%; with Tyrophagus putrescentiae [14], 100%; in the test with Coptotermes formosanus [15], 100%; in the test with Coptotermes formosanus [16], 100%. The mortality in the test with Dermatophagoides farinae [4] is reported as 100%; in the test with Dermatophagoides farinae [17] it was 100%; with Dermatophagoides farinae [18], 100%; with Dermatophagoides farinae [19] it was 0%; in the test on Coptotermes formosanus [20], 37.5%; in the test with Coptotermes formosanus [21], 0%. For the same compound, the mortality in the test on Coptotermes formosanus [22] was found to be 57.9%; in the test on Coptotermes formosanus [23], 0%. Besides, the IC50 at Thermolysin was determined as 71.1 µM. The LC50 in the test on Tyrophagus putrescentiae [9] was determined as 0.11 g/m2.

The term mortality denotes the share of the test organisms that died. Usually IC50 stands for the point on the concentration scale where inhibition reaches its midpoint. Higher therefore signals lower potency.
